Data as given in PubChem BioAssay AID330 (DTP/NCI, 2004).
“And” between values parts separate entries of the source, which are not always exact repeats. Equal entries are not always repeated. Toxic doses and inconclusive results are not listed.

Tested on: P388 leukemia ip, CD2F1 mice, survival T/C
Test: NCI In Vivo Anticancer Drug Screen. Data for tumor model P388 Leukemia (intraperitoneal) in CD2F1 (CDF1) mice
Settings: endpoint: median survival time, higher = longer survival
In short: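 Mice carrying the transplanted tumor received test compound or vehicle. Survival was recorded in each group, and the value is the treated-group measurement divided by that of the vehicle-treated control group.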

[1] = dose: 60.0 mg/kg/injection, schedule: Q01DX005 (ip), vehicle: Klucel (hydroxypropylcellulose) (HPC)
[2] = dose: 120.0 mg/kg/injection, schedule: Q01DX005 (ip), vehicle: Klucel (hydroxypropylcellulose) (HPC)
[3] = dose: 240.0 mg/kg/injection, schedule: Q01DX005 (ip), vehicle: Klucel (hydroxypropylcellulose) (HPC)
[4] = dose: 50.0 mg/kg/injection, schedule: Q01DX009 (ip), vehicle: Klucel (hydroxypropylcellulose) (HPC)
[5] = dose: 100.0 mg/kg/injection, schedule: Q01DX009 (ip), vehicle: Klucel (hydroxypropylcellulose) (HPC)
[6] = dose: 200.0 mg/kg/injection, schedule: Q01DX009 (ip), vehicle: Klucel (hydroxypropylcellulose) (HPC)
[7] = dose: 7.5 mg/kg/injection, schedule: Q01DX009 (ip), vehicle: saline with Tween-80
[8] = dose: 15.0 mg/kg/injection, schedule: Q01DX009 (ip), vehicle: saline with Tween-80
[9] = dose: 30.0 mg/kg/injection, schedule: Q01DX009 (ip), vehicle: saline with Tween-80
[10] = dose: 60.0 mg/kg/injection, schedule: Q01DX005 (ip), vehicle: saline with Tween-80
[11] = dose: 12.5 mg/kg/injection, schedule: Q01DX009 (ip), vehicle: Klucel (hydroxypropylcellulose) (HPC)
[12] = dose: 50.0 mg/kg/injection, schedule: Q01DX005 (ip), vehicle: saline with Tween-80
[13] = dose: 50.0 mg/kg/injection, schedule: Q01DX005 (ip), vehicle: Klucel (hydroxypropylcellulose) (HPC)
[14] = dose: 100.0 mg/kg/injection, schedule: Q01DX005 (ip), vehicle: Klucel (hydroxypropylcellulose) (HPC)
[15] = dose: 50.0 mg/kg/injection, schedule: Q01DX009 (ip), vehicle: saline with Tween-80
[16] = dose: 100.0 mg/kg/injection, schedule: Q01DX009 (ip), vehicle: saline with Tween-80

## O=C1C2=C(Nc3cc([N+](=O)[O-])ccc3N2)OC1c1ccc(C2OC3=C(Nc4ccc([N+](=O)[O-])cc4N3)C2=O)cc1 (stereo not given)
[1]
  T/C: 102 % of control
[2]
  T/C: 96 % of control
[3]
  T/C: 99 % of control

## O=C(CC(NO)c1ccccc1)NO (stereo not given)
[4]
  T/C: 99 % of control
[5]
  T/C: 105 % of control
[6]
  T/C: 115 % of control

## CN(C)Cc1cc(O)c(CN(C)C)cc1O
dose: 3.13 mg/kg/injection, schedule: Q01DX009 (ip), vehicle: saline + Tween-80 + alcohol
  T/C: 100 % of control
dose: 6.25 mg/kg/injection, schedule: Q01DX009 (ip), vehicle: saline + Tween-80 + alcohol
  T/C: 101 % of control and 111 % of control
dose: 12.5 mg/kg/injection, schedule: Q01DX009 (ip), vehicle: other
  T/C: 123 % of control
dose: 12.5 mg/kg/injection, schedule: Q01DX009 (ip), vehicle: saline + Tween-80 + alcohol
  T/C: 102 % of control and 112 % of control
dose: 25.0 mg/kg/injection, schedule: Q01DX009 (ip), vehicle: other
  T/C: 105 % of control
dose: 25.0 mg/kg/injection, schedule: Q01DX009 (ip), vehicle: saline + Tween-80 + alcohol
  T/C: 107 % of control and 109 % of control
dose: 50.0 mg/kg/injection, schedule: Q01DX009 (ip), vehicle: other
  T/C: 105 % of control
dose: 100.0 mg/kg/injection, schedule: Q01DX009 (ip), vehicle: other
  T/C: 119 % of control

## CCCN(CCC)c1nsc(N)n1
[7]
  T/C: 113 % of control
[8]
  T/C: 113 % of control
[9]
  T/C: 118 % of control

## Oc1ccc[nH]c1=S
dose: 12.5 mg/kg/injection, schedule: Q01DX009 (ip), vehicle: saline
  T/C: 104 % of control and 105 % of control

## CC(C)(C)c1cc(Cc2ccccc2)c(O)c(C(C)(C)C)c1
dose: 50.0 mg/kg/injection, schedule: Q01DX005 (ip), vehicle: distilled water + alcohol
  T/C: 100 % of control
dose: 100.0 mg/kg/injection, schedule: Q01DX005 (ip), vehicle: distilled water + alcohol
  T/C: 103 % of control
dose: 200.0 mg/kg/injection, schedule: Q01DX005 (ip), vehicle: distilled water + alcohol
  T/C: 111 % of control

## CCO/C=C1/N=C(c2ccc(Cl)cc2)OC1=O
[10]
  T/C: 121 % of control

## O=C(OCCN1CCN(CCCN2c3ccccc3Sc3ccc(C(F)(F)F)cc32)CC1)C12CC3CC(CC(C3)C1)C2
dose: 3.12 mg/kg/injection, schedule: Q01DX009 (ip), vehicle: Klucel (hydroxypropylcellulose) (HPC)
  T/C: 105 % of control
dose: 6.25 mg/kg/injection, schedule: Q01DX009 (ip), vehicle: Klucel (hydroxypropylcellulose) (HPC)
  T/C: 103 % of control and 96 % of control
[11]
  T/C: 110 % of control and 112 % of control and 97 % of control
dose: 25.0 mg/kg/injection, schedule: Q01DX009 (ip), vehicle: Klucel (hydroxypropylcellulose) (HPC)
  T/C: 112 % of control
[4]
  T/C: 113 % of control
[5]
  T/C: 118 % of control

## CC1CCC(C(C)C)C(OC(=O)c2ccc[n+](C)c2)C1 (stereo not given)
dose: 12.5 mg/kg/injection, schedule: Q01DX005 (ip), vehicle: saline
  T/C: 105 % of control
dose: 25.0 mg/kg/injection, schedule: Q01DX005 (ip), vehicle: saline
  T/C: 116 % of control
dose: 50.0 mg/kg/injection, schedule: Q01DX005 (ip), vehicle: saline
  T/C: 100 % of control and 105 % of control

## CC(C)(C)c1ccc(NC(=O)c2ccccc2N)cc1
[12]
  T/C: 101 % of control
dose: 100.0 mg/kg/injection, schedule: Q01DX005 (ip), vehicle: saline with Tween-80
  T/C: 97 % of control
dose: 200.0 mg/kg/injection, schedule: Q01DX005 (ip), vehicle: saline with Tween-80
  T/C: 92 % of control

## CN(C(=S)S(=O)(=O)C12CC3CC(CC(C3)C1)C2)c1ccccc1
[11]
  T/C: 118 % of control
[4]
  T/C: 124 % of control

## O=C1OC(c2ccccc2)=N/C1=C/c1c(-c2ccccc2)c(-c2ccccc2)c2n1CCC2
[13]
  T/C: 86 % of control
[14]
  T/C: 86 % of control
dose: 200.0 mg/kg/injection, schedule: Q01DX005 (ip), vehicle: Klucel (hydroxypropylcellulose) (HPC)
  T/C: 86 % of control

## CN(C)CCNc1ccc(NCCNCCO)c2c1C(=O)c1ccccc1C2=O
dose: 10.0 mg/kg/injection, schedule: Q04DX002 (ip), vehicle: saline
  T/C: 151 % of control
dose: 20.0 mg/kg/injection, schedule: Q04DX002 (ip), vehicle: saline
  T/C: 173 % of control
dose: 40.0 mg/kg/injection, schedule: Q04DX002 (ip), vehicle: saline
  T/C: 192 % of control
dose: 80.0 mg/kg/injection, schedule: Q04DX002 (ip), vehicle: saline
  T/C: 192 % of control

## CCCCCCOC(=O)c1ccc(OC)cc1
[15]
  T/C: 104 % of control
[16]
  T/C: 106 % of control
dose: 200.0 mg/kg/injection, schedule: Q01DX009 (ip), vehicle: saline with Tween-80
  T/C: 108 % of control

## CC1=CC(OCc2ccccc2)OC1=O (stereo not given)
dose: 100.0 mg/kg/injection, schedule: Q04DX002 (ip), vehicle: Klucel (hydroxypropylcellulose) (HPC)
  T/C: 101 % of control
dose: 200.0 mg/kg/injection, schedule: Q04DX002 (ip), vehicle: Klucel (hydroxypropylcellulose) (HPC)
  T/C: 102 % of control
dose: 400.0 mg/kg/injection, schedule: Q04DX002 (ip), vehicle: Klucel (hydroxypropylcellulose) (HPC)
  T/C: 104 % of control

## COc1ccc(C(=O)C(C)Sc2ccccc2)cc1OC (stereo not given)
dose: 10.0 mg/kg/injection, schedule: Q01DX005 (ip), vehicle: Klucel (hydroxypropylcellulose) (HPC)
  T/C: 108 % of control
dose: 20.0 mg/kg/injection, schedule: Q01DX005 (ip), vehicle: Klucel (hydroxypropylcellulose) (HPC)
  T/C: 105 % of control
dose: 40.0 mg/kg/injection, schedule: Q01DX005 (ip), vehicle: Klucel (hydroxypropylcellulose) (HPC)
  T/C: 101 % of control

## COC1C(O)C(CO)OC1n1ccc(NC(=O)c2ccccc2)nc1=O (stereo not given)
[1]
  T/C: 98 % of control and 93 % of control
[2]
  T/C: 94 % of control
[3]
  T/C: 91 % of control and 93 % of control

## NC(N)=NS(=O)(=O)c1ccccc1[N+](=O)[O-]
[7]
  T/C: 106 % of control
[8]
  T/C: 113 % of control
[9]
  T/C: 120 % of control

## CC1(C)NC(=O)[C@]2(C[C@@H](OC(=O)c3ccccc3)C=C2C=O)O1
dose: 25.0 mg/kg/injection, schedule: Q01DX005 (ip), vehicle: saline with Tween-80
  T/C: 109 % of control
[12]
  T/C: 96 % of control

## COC(=O)C1C(C)(C)N=[N+]([O-])C1(C)C (stereo not given)
dose: 12.5 mg/kg/injection, schedule: Q01DX009 (ip), vehicle: water
  T/C: 102 % of control
dose: 25.0 mg/kg/injection, schedule: Q01DX009 (ip), vehicle: water
  T/C: 107 % of control
dose: 50.0 mg/kg/injection, schedule: Q01DX009 (ip), vehicle: water
  T/C: 99 % of control
dose: 100.0 mg/kg/injection, schedule: Q01DX009 (ip), vehicle: water
  T/C: 97 % of control
dose: 200.0 mg/kg/injection, schedule: Q01DX009 (ip), vehicle: water
  T/C: 99 % of control

## CC(C)=CCc1c(C)cc2cc3c(c(O)c2c1O)C(O)=CC(=O)C3(CC=C(C)C)C/C=C(\C)CO (stereo not given)
dose: 25.0 mg/kg/injection, schedule: Q01DX005 (ip), vehicle: Klucel (hydroxypropylcellulose) (HPC)
  T/C: 103 % of control
[13]
  T/C: 93 % of control
[14]
  T/C: 97 % of control

## O=C1CCC(C(Sc2ccccc2)(Sc2ccccc2)Sc2ccccc2)C1 (stereo not given)
[4]
  T/C: 97 % of control
[5]
  T/C: 90 % of control
[6]
  T/C: 89 % of control

## CC1C(=O)C(C)C(c2ccc(Cl)cc2)OC1c1ccccc1 (stereo not given)
dose: 50.0 mg/kg/injection, schedule: Q01DX001 (ip), vehicle: Klucel (hydroxypropylcellulose) (HPC)
  T/C: 94 % of control
dose: 100.0 mg/kg/injection, schedule: Q01DX001 (ip), vehicle: Klucel (hydroxypropylcellulose) (HPC)
  T/C: 95 % of control
dose: 200.0 mg/kg/injection, schedule: Q01DX001 (ip), vehicle: Klucel (hydroxypropylcellulose) (HPC)
  T/C: 105 % of control

## CC1=CC(O)(C2(C)OC(C)(C)OC2=O)CCC1 (stereo not given)
dose: 100.0 mg/kg/injection, schedule: Q01DX001 (ip), vehicle: saline
  T/C: 100 % of control
dose: 200.0 mg/kg/injection, schedule: Q01DX001 (ip), vehicle: saline
  T/C: 100 % of control
dose: 400.0 mg/kg/injection, schedule: Q01DX001 (ip), vehicle: saline
  T/C: 100 % of control

## CCN(CC)CCNc1ccnc(F)n1
dose: 30.0 mg/kg/injection, schedule: Q01DX005 (ip), vehicle: saline with Tween-80
  T/C: 101 % of control
[10]
  T/C: 103 % of control

## COc1cc(N2C(=O)CSC2=S)cc(OC)c1OC
[4]
  T/C: 100 % of control
[5]
  T/C: 89 % of control
[6]
  T/C: 101 % of control

## CSC(SC)(SC)C(=O)N(C)C
dose: 25.0 mg/kg/injection, schedule: Q01DX009 (ip), vehicle: saline with Tween-80
  T/C: 95 % of control
[15]
  T/C: 93 % of control
[16]
  T/C: 96 % of control
